Drawing on PubChem BioAssay (NCI), this text covers TGI and GI50 for 16 molecules.

Structures are written as SMILES.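 Step 1: Grow cells in 96-well plates. Step 2: Expose to compound for 48 hours at 5 concentrations. Step 3: Interpolate endpoints linearly; if unreached, use highest concentration. GI50 = concentration required for 50% inhibition of growth. TGI: concentration producing complete growth inhibition.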

Test systems include COLO 205 colon; NCI/ADR-RES ovarian; RXF 393 renal; SR leukemia; CAKI-1 renal; CCRF-CEM leukemia; DU-145 prostate; M14 melanoma; HOP-62 NSCLC; A498 renal; HT29 colon; SF-295 CNS; NCI-H23 lung; NCI-H460 lung.
What all share (assay): NCI tumour cell line growth inhibition, 48 h

Consider `COc1ccc2c(c1)C1c3ccccc3CCN1CCC2` (configuration not stated), for which the TGI in the experiment with COLO 205 colon, with NCI/ADR-RES ovarian, in the experiment on RXF 393 renal, in the experiment on SR leukemia, with CAKI-1 renal and in the experiment with CCRF-CEM leukemia was > 100 µM in each case. The TGI was > 100 µM with DU-145 prostate; > 100 µM in the experiment with M14 melanoma; > 100 µM in the experiment with HOP-62 NSCLC; > 100 µM with A498 renal; > 100 µM with HT29 colon; 54 µM in the experiment with SF-295 CNS. In addition, in the experiment with NCI-H23 lung, the TGI is > 100 µM.

Regarding `O=[N+]([O-])c1cc2ccc1OCc1cccc(n1)COc1ccc(cc1[N+](=O)[O-])C=NCCCCCCCCN=C2`, the TGI with COLO 205 colon, in the experiment with NCI/ADR-RES ovarian, in the experiment with SR leukemia, in the experiment with CAKI-1 renal, in the experiment on CCRF-CEM leukemia and with DU-145 prostate was > 100 µM each time. Further, the TGI with M14 melanoma, with NCI-H460 lung, in the experiment with HOP-62 NSCLC, in the experiment on A498 renal, with HT29 colon and in the experiment on SF-295 CNS was > 100 µM in each case. Further, the TGI with NCI-H23 lung is > 100 µM.

Take `C=CC[C@@]12CCC(=O)C=C1CCCC2=O`: the TGI in the experiment on COLO 205 colon, in the experiment with NCI/ADR-RES ovarian, in the experiment on RXF 393 renal, with SR leukemia, with CAKI-1 renal and in the experiment with DU-145 prostate was > 100 µM throughout. The TGI in the experiment on M14 melanoma, in the experiment on NCI-H460 lung, in the experiment on HOP-62 NSCLC, in the experiment on A498 renal, in the experiment on HT29 colon and with SF-295 CNS was > 100 µM each time. For the same molecule, the TGI in the experiment with NCI-H23 lung was > 100 µM.

As for `Cc1ncc([N+](=O)[O-])n1CCNC(=O)Cn1ccnc1[N+](=O)[O-]`, the TGI in the experiment with COLO 205 colon, with NCI/ADR-RES ovarian, in the experiment with SR leukemia, in the experiment on CAKI-1 renal, in the experiment on CCRF-CEM leukemia and in the experiment on DU-145 prostate was > 100 µM throughout. For the same molecule, the TGI with M14 melanoma, in the experiment on NCI-H460 lung, in the experiment on HOP-62 NSCLC, with A498 renal, in the experiment with HT29 colon and with SF-295 CNS was > 100 µM in each case. Besides, the TGI in the experiment with NCI-H23 lung was > 100 µM.

With `Cc1ccc2nc(-c3ccc(-c4nc5ccc(C)cc5o4)c(O)c3)oc2c1`, the TGI with COLO 205 colon, with NCI/ADR-RES ovarian, in the experiment on SR leukemia, in the experiment on CCRF-CEM leukemia, in the experiment with DU-145 prostate and in the experiment with M14 melanoma was > 100 µM in each case. Further, the TGI in the experiment on NCI-H460 lung, in the experiment with HOP-62 NSCLC, in the experiment on A498 renal and with NCI-H23 lung was > 100 µM each time.

For `COC(=O)/C=C/c1ccc2c(c1)[C@H](C(=O)OC)[C@@H](c1ccc(O)cc1)O2`, the TGI is 89.4 µM in the experiment with COLO 205 colon; > 100 µM with NCI/ADR-RES ovarian; 45.8 µM in the experiment with SR leukemia; > 100 µM in the experiment with CAKI-1 renal; 78 µM in the experiment on CCRF-CEM leukemia; > 100 µM with DU-145 prostate. Besides, the TGI in the experiment with M14 melanoma was 42.7 µM; in the experiment on NCI-H460 lung it was > 100 µM; in the experiment on HOP-62 NSCLC it was > 100 µM; in the experiment with A498 renal, > 100 µM; with HT29 colon it was > 100 µM; with SF-295 CNS, > 100 µM. For the same molecule, the TGI in the experiment on NCI-H23 lung was > 100 µM.

On to `COc1ccc(OC2OC(CO)C(O)C(O)C2O)cc1` (configuration not stated), for which the TGI in the experiment on COLO 205 colon, in the experiment on NCI/ADR-RES ovarian, in the experiment with SR leukemia, with CAKI-1 renal, in the experiment on CCRF-CEM leukemia and with DU-145 prostate was > 100 µM in each case. Further, the TGI in the experiment with M14 melanoma, in the experiment on NCI-H460 lung, in the experiment on HOP-62 NSCLC, with A498 renal, with HT29 colon and in the experiment with SF-295 CNS was > 100 µM in each case. Besides, the TGI in the experiment with NCI-H23 lung was > 100 µM.

Turning to `CC1CN=C(NS(=O)(=O)c2cc(C(=O)Nc3ccccc3)c(Cl)cc2S)NN1` (configuration not stated), the TGI with COLO 205 colon, with NCI/ADR-RES ovarian, with SR leukemia, in the experiment on CAKI-1 renal, in the experiment on CCRF-CEM leukemia and in the experiment on DU-145 prostate was > 100 µM throughout. Besides, the TGI is > 100 µM in the experiment on M14 melanoma; > 100 µM with NCI-H460 lung; > 100 µM in the experiment on HOP-62 NSCLC; 57.4 µM with A498 renal; > 100 µM in the experiment on HT29 colon; > 100 µM in the experiment on SF-295 CNS. Moreover, in the experiment with NCI-H23 lung, the TGI is > 100 µM.

Regarding `CC(C)(C)OC(=O)NC(Cc1ccc(OCc2ccccc2)cn1)C(N)=O` (configuration not stated), the TGI in the experiment on COLO 205 colon, in the experiment on NCI/ADR-RES ovarian, in the experiment on RXF 393 renal, with SR leukemia, in the experiment with CAKI-1 renal and with CCRF-CEM leukemia was > 100 µM each time. In addition, the TGI in the experiment on DU-145 prostate, in the experiment on NCI-H460 lung, in the experiment on HOP-62 NSCLC, with A498 renal, in the experiment with HT29 colon and with SF-295 CNS was > 100 µM each time. The TGI in the experiment on NCI-H23 lung was > 100 µM.

Turning to `COc1cc(/C=C2\CC(C)C/C(=C\c3ccc(O)c(OC)c3)C2=O)ccc1O` (configuration not stated), the TGI in the experiment on COLO 205 colon is 24.7 µM; in the experiment on NCI/ADR-RES ovarian, > 62.2 µM; with RXF 393 renal, 7.56 µM; in the experiment with SR leukemia, > 25.5 µM; with CCRF-CEM leukemia it was > 45 µM; in the experiment on DU-145 prostate it was 12.7 µM. In addition, the TGI with M14 melanoma is 8.22 µM; in the experiment with NCI-H460 lung it was 9.45 µM; in the experiment with HOP-62 NSCLC it was 9.11 µM; in the experiment on A498 renal, 9.61 µM; in the experiment on HT29 colon it was 20.1 µM; with SF-295 CNS, 29.8 µM. This molecule gave a TGI with NCI-H23 lung of 11 µM.

As to `C=C(C)CCN(C(=O)OC(C)(C)C)c1cc(C(C)C)co1`, the TGI with COLO 205 colon, in the experiment on NCI/ADR-RES ovarian, in the experiment on SR leukemia, with CAKI-1 renal, with CCRF-CEM leukemia and in the experiment with DU-145 prostate was > 100 µM throughout. Further, the TGI with M14 melanoma, with HOP-62 NSCLC, in the experiment with A498 renal, in the experiment on HT29 colon, in the experiment on SF-295 CNS and in the experiment on NCI-H23 lung was > 100 µM throughout.

For the molecule `COC(=O)/C(C#N)=C(/NCc1ccccc1)Nc1ccccc1`, the TGI with COLO 205 colon, in the experiment on NCI/ADR-RES ovarian, with RXF 393 renal, in the experiment on SR leukemia, in the experiment with CAKI-1 renal and with DU-145 prostate was > 100 µM each time. In addition, the TGI in the experiment on M14 melanoma, with NCI-H460 lung, in the experiment with HOP-62 NSCLC, in the experiment on A498 renal, in the experiment on HT29 colon and in the experiment with SF-295 CNS was > 100 µM throughout. In the experiment on NCI-H23 lung, the TGI was > 100 µM.

Take `O=c1cc(-c2ccc3ccccc3c2)[nH]c2ncccc12`: the TGI with COLO 205 colon is > 100 µM; in the experiment with NCI/ADR-RES ovarian, > 100 µM; in the experiment with SR leukemia, 6.1 µM; with CAKI-1 renal it was > 100 µM; with CCRF-CEM leukemia it was > 100 µM; in the experiment with DU-145 prostate, > 100 µM. Moreover, the TGI is > 100 µM in the experiment on M14 melanoma; > 100 µM with NCI-H460 lung; > 100 µM with HOP-62 NSCLC; 48.7 µM in the experiment on A498 renal; > 100 µM with HT29 colon; > 100 µM with SF-295 CNS. The TGI in the experiment with NCI-H23 lung is > 100 µM. The GI50 is 5.63 µM in the experiment with CAKI-1 renal, 3.79 µM in the experiment on NCI-H460 lung and 9.19 µM in the experiment on SF-295 CNS.

On to `COc1ccc(C(c2cc(OC)c(OC)c(OC)c2)N2C(=O)CCC2C(=O)O)cc1` (configuration not stated), for which the TGI with COLO 205 colon, with NCI/ADR-RES ovarian, with SR leukemia, with CAKI-1 renal, in the experiment on CCRF-CEM leukemia and in the experiment with DU-145 prostate was > 100 µM throughout. For the same molecule, the TGI in the experiment with M14 melanoma was > 100 µM; in the experiment with NCI-H460 lung, > 100 µM; in the experiment on HOP-62 NSCLC, > 100 µM; with A498 renal, > 100 µM; in the experiment on HT29 colon, > 100 µM; in the experiment with SF-295 CNS it was 66.4 µM. In addition, in the experiment on NCI-H23 lung, the TGI is > 100 µM.

Consider `Oc1ccccc1-c1n[nH]c(-c2ccccc2O)n1`, for which the TGI in the experiment on COLO 205 colon is > 85.8 µM; with NCI/ADR-RES ovarian, > 100 µM; in the experiment on RXF 393 renal, > 100 µM; in the experiment on SR leukemia, > 100 µM; with CAKI-1 renal, > 100 µM; with CCRF-CEM leukemia, > 100 µM. The TGI with DU-145 prostate, with M14 melanoma, with NCI-H460 lung, in the experiment with HOP-62 NSCLC, with A498 renal and in the experiment with HT29 colon was > 100 µM each time. In the experiment on SF-295 CNS, the TGI is > 100 µM.

In the case of `CN(C)CCN=C1Nc2ccccc2C(=O)N2CSCC12` (configuration not stated), the TGI in the experiment with COLO 205 colon, with NCI/ADR-RES ovarian, with RXF 393 renal, in the experiment on SR leukemia, in the experiment on CAKI-1 renal and in the experiment on CCRF-CEM leukemia was > 100 µM each time. The TGI in the experiment with DU-145 prostate, with M14 melanoma, with NCI-H460 lung, in the experiment on HOP-62 NSCLC, in the experiment on A498 renal and in the experiment with HT29 colon was > 100 µM in each case. Further, the TGI in the experiment with SF-295 CNS was > 100 µM.
